Data set [1] has as its system RAW264.7 cells. The data set is described as follows: IL-12 production in LPS-stimulated RAW264.7 cells (IL-12 ELISA). In kind it is cell-based, murine. To be noted: 100 ng/mL LPS, 21 hours. As for the experimental part: RAW264.7 cells were cultured with 100 ng/mL of LPS in presence or absence of compounds for 21 hours in a humidified atmosphere of 95% air-5% carbon dioxide at 37° C. IL-12 concentration in the culture medium was measured using the IL-12 ELISA according to the manufacturer (BD Biosciences) recommendations. […] An in vitro IL-12 production assay was used for screening potential inhibitors of osteoclastogenesis.
(In general: In an ELISA, binding on a coated surface is turned into a signal by an enzyme label.)

The test system of data set [2] is RAW264.7 cells. The data set is described as follows: LPS-induced osteoclastogenesis in RAW264.7 cells, TRAP staining. The format is cell-based, murine. To be noted: RAW264.7 cells differentiated with LPS (1 ug/ml), days 3-5 (FIG. 1). The text has this:
RAW264.7 cells are precursors of osteoclasts and can be differentiated by several factors including Receptor activator of NF-κB ligand (RANKL) or Lipopolysaccharide (LPS). Osteoclasts are characterized by high expression or tartrate resistant acid phosphatase (TRACP) and Matrix Metalloproteinase-9 (MMP-9) which can be used as markers for osteoclasts. […] The effect of selected compounds on TRAP (osteoclast marker) and IL-12 was undertaken in RAW264.7 cells, a murine osteoclast precursor cell line, in comparison with capric acid, as a positive control for reduction of osteoclastogenesis (Park et al. (2011) PLOS One Volume 6, Issue 11, 8 pages). RAW264.7 cells were differentiated by the incubation with LPS (1 ug/ml) in presence or not of capric acid or Compound I. On days 3-5, osteoclast formation was evaluated using tartrate-resistant acid phosphatase (TRAP) staining.

The subject of data set [3] is ovariectomized (OVX) rats. Put plainly: Ovariectomized (OVX) rat model of osteoporosis. The format is in vivo, Sprague Dawley rats. From the text:
Although in comparison to humans, the skeletal mass of rats remains stable for a protracted period during their lifespan, rats can be ovariectomized to make them sex-hormone deficient, and to stimulate the accelerated loss of bone that occurs in women following menopause. Ovariectomy induces bone loss in the rat and postmenopausal bone loss share many similar characteristics. These include: increased rate of bone turnover with resorption exceeding formation; an initial rapid phase of bone loss followed by a much slower phase; greater loss of cancellous than cortical bone; decreased intestinal absorption of calcium; some protection against bone loss by obesity; and similar skeletal response to therapy with estrogen, tamoxifen, bisphosphonates, parathyroid hormone, calcitonin and exercise. These wide-ranging similarities are strong evidence that the ovariectomized rat bone loss model is suitable for studying problems that are relevant to postmenopausal bone loss. Sprague Dawley rats (250 g) were ovariectomized (OVX) at day 0. Rats were treated by oral gavage with Compound I (200 mg/kg) from day 14 to day 68. Evaluation of different parameters (body weight, calcium loss, osteoclast markers (RANKL and TRAP mRNA expression), collagen content and histology) was performed at day 68.

The test system of a further data set is db/db mice. Put plainly: Serum adiponectin level in uninephrectomized diabetic obese (db/db) mice. The format is in vivo. To be noted: uninephrectomized db/db mice treated for 113 days (FIG. 9). As for the experimental part: To determine if selected compounds of this invention can affect serum adiponectin level, a model of diabetes type II/obesity was used. Briefly, db/db mice (6 weeks-old were uninephrectomized and treated with Compound XIV for 113 days (structure is shown in Table 1 hereinbefore). Serum adiponectin levels were determined with a mouse adiponectin enzyme-linked immunosorbant assay kit (R&D Systems).

In data set [4] the test system is RAW264.7 cells. Conditions: cited from earlier work.

A word on the melting point: it is the temperature of the solid-liquid transition.

The structures appear in SMILES notation. “Also recorded” adds a separate entry of the source.

Compound `CCCCCc1cccc(C(F)C(=O)[O-])c1.[Na+]` (racemic) [Compound XIII, Sodium Salt of (RS)-2-Fluoro-2-(3-pentylphenyl)acetic Acid] yielded an IL12 with RAW264.7 cells [1] (compound concentration 0.25 mM) of 17.6 pg/mL.

Consider `CCCCCc1cccc(CC(=O)[O-])c1.[Na+]` [Compound I, Sodium Salt of (3-pentylphenyl)acetic Acid], for which the “osteoclast formation, TRAP staining” value with RAW264.7 cells [2] was “no TRAP cells are observable”. For the same compound, the IL12 in the data set with RAW264.7 cells [1] (compound concentration 0.50 mM) is 54.34 pg/mL. The “IL-12 production (in words)” value in the data set on RAW264.7 cells [1] (various concentrations (FIG. 2, Table 2)) is recorded as “strong induction of IL-12 production”. Further, the “body weight / ovariectomized-induced obesity” value in data set [3] (oral gavage 200 mg/kg day 14 to day 68 (FIG. 3)) is given as “reduced ovariectomized-induced obesity”. Moreover, the “calcium loss in urine” value in data set [3] (oral gavage 200 mg/kg, day 28 to day 56 (FIG. 4)) is given as “reduced significantly the calcium loss”. In addition, in data set [3] (oral gavage 200 mg/kg, day 28 to day 56 (FIG. 5)), the “acid phosphatase activity in serum” value was “reduces the acid phosphatase activity”. In addition, the “ratio of mRNA expression of RANKL/OPG in rat tibia” value in data set [3] (oral gavage 200 mg/kg, day 68 (FIG. 6)) is reported as “decreased”. Also, in data set [3] (oral gavage 200 mg/kg, day 68 (FIG. 7)), the “collagen content in the metaphyse of the femur” value is given as “increased the collagen content”. Besides, the “bone loss in the metaphysis of the femur, histology” value in data set [3] (oral gavage 200 mg/kg, day 68 (FIG. 8)) is recorded as “reduced bone loss”.

In the case of `CCCCCc1cccc(CCC(=O)[O-])c1.[Na+]` [Compound II, Sodium Salt of 3-(3-pentylphenyl)propionic Acid], in the data set with RAW264.7 cells [1] (compound concentration 0.50 mM), the IL12 came to 350.65 pg/mL.

In turn, `CCCCc1cccc(CCC(=O)[O-])c1.[Na+]` [Compound III, Sodium Salt of 3-(3-butylphenyl)propionic Acid] showed an IL12 in the data set on RAW264.7 cells [1] (compound concentration 0.50 mM) of 62.28 pg/mL.

As to `CCC/C=C/c1cccc(CC(=O)[O-])c1.[Na+]` [Compound IV, Sodium Salt of E-(3-pent-1-enyl-phenyl)acetic Acid], the IL12 in the data set on RAW264.7 cells [1] (compound concentration 0.50 mM) was 19.31 pg/mL.

`CCCCCc1cccc(CC(=O)[O-])c1O.[Na+]` [Compound IX, Sodium Salt of 2-(2-Hydroxy-3-pentylphenyl)acetic Acid] displayed an IL12 with RAW264.7 cells [1] (compound concentration 0.1 mM) of 12.57 pg/mL.

On to `CCCC/C=C/c1cccc(CC(=O)[O-])c1.[Na+]` [Compound V, Sodium Salt of 2-(3-(Hex-1-enyl]phenyl)acetic Acid], for which the IL12 in the data set on RAW264.7 cells [1] (compound concentration 0.50 mM) amounted to 52.5 pg/mL.

`CCCCCCc1cccc(CC(=O)[O-])c1.[Na+]` [Compound VI, Sodium Salt of 2-(3-Hexylphenyl)acetic Acid]: the IL12 in the data set with RAW264.7 cells [1] (compound concentration 0.25 mM) was determined as 58.87 pg/mL.

For the compound `CCCCCc1cc(O)cc(CC(=O)[O-])c1.[Na+]` [Compound VII, Sodium Salt of 3-hydroxy-5-pentylphenylacetic Acid], in the data set on RAW264.7 cells [1] (compound concentration 0.50 mM), the IL12 was determined as 16.6 pg/mL.

In turn, `CCCCCc1cc(CC(=O)[O-])ccc1O.[Na+]` [Compound VIII, Sodium Salt of 2-(4-Hydroxy-3-pentylphenyl)acetic Acid] returned an IL12 in the data set on RAW264.7 cells [1] (compound concentration 0.50 mM) of 20 pg/mL.

In the data set on RAW264.7 cells [1] (compound concentration 0.50 mM), `CCCCCc1cc(F)cc(CC(=O)[O-])c1.[Na+]` [Compound X, Sodium Salt of 2-(3-fluoro-5-pentylphenyl)acetic Acid] had an IL12 of 80 pg/mL.

In the data set with RAW264.7 cells [1] (compound concentration 0.25 mM), `CCCCCc1cccc(CC(=O)[O-])c1F.[Na+]` [Compound XI, Sodium Salt of 2-(2-Fluoro-3-pentylphenyl)acetic Acid] came in with an IL12 of 15 pg/mL.

Turning to `CCCCCc1cc(CC(=O)[O-])ccc1F.[Na+]` [Compound XII, Sodium Salt of 2-(4-Fluoro-3-pentylphenyl)acetic Acid], the IL12 with RAW264.7 cells [1] (compound concentration 0.50 mM) worked out at 419.6 pg/mL.

For `CCCCCc1cc(CCCCC)cc(CC(=O)[O-])c1.[Na+]` [Compound XIV, Sodium 2-[3,5-Dipentylphenyl] Acetate], the melting point lay within 225 to 230 °C. In addition, the serum adiponectin level entry in the data set on db/db mice was “increased the level of adiponectin to the level of the sham animals”.

In turn, `CCCCCc1cc(CCCCC)c(O)c(CC(=O)[O-])c1.[Na+]` [Compound XVI, Sodium Salt of 2-(2-Hydroxy-3,5-dipentylphenyl)acetic Acid] had an IL12 in the data set with RAW264.7 cells [1] (compound concentration 0.005 mM) of 15 pg/mL.

The compound `CCCCCc1cc(CCCCC)cc(CCC(=O)[O-])c1.[Na+]` [Compound XXIV, Sodium 3-[3,5-Dipentylphenyl]propanoate] showed an IL12 in the data set with RAW264.7 cells [1] (compound concentration 0.0025 mM) of 79.9 pg/mL.

Consider `CCCCCCCCCC(=O)O` [capric acid], for which the “osteoclast formation, TRAP staining” value with RAW264.7 cells [2] was “no TRAP cells are observable”. In addition, in the data set on RAW264.7 cells [4] (literature (Wang et al. 2006)), the IL-12 production result is on record as “increase in IL-12 production; also recorded: increases the production of IL-12” and the “phosphatase (TRAP)-positive cells” value was “reduction of phosphatase (TRAP)-positive cells”. Further, in the data set on RAW264.7 cells [4] (literature), the “LPS-upregulated iNOS mRNA levels and nitric oxide (NO) production” value is given as “inhibited them”; the “monocyte chemoattractant protein-1 (MCP-1) mRNA expression” value is on record as “inhibited monocyte chemoattractant protein-1 (MCP-1) mRNA expression”.

These data come from US11185521B2, “Substituted aromatic compounds and pharmaceutical compositions for the prevention and treatment of osteoporosis” (Liminal BioSciences Inc., priority 2014, dated 2021).
